Experimental data published in patent publication US6894021B2, “Method for identifying and using A2B adenosine receptor antagonists to mediate mammalian cell proliferation” (CV Therapeutics, Inc., priority 2000, dated 2005).
Entries after “also recorded” stand apart in the source; their conditions may differ.

Columns and labels:
Type in all cases: cell-based
[1] = system: human retinal endothelial cells (HREC); assay: HREC proliferation assay (cell counting, Coulter Counter); settings: for Effect on NECA-induced HREC proliferation: antagonist 10 μmol/L with NECA 10 μmol/L, FIG. 1A
Procedure: (§1) Primary cultures of HREC were prepared and maintained as previously described and cells in passage 3-6 were used for these studies. […] To maintain purity of HREC, several precautionary steps were taken. […] In addition, cultures of HREC were exposed to trypsin for only 45 sec prior to passage. Endothelial cells float off during this short trypsin treatment while pericytes remain attached to the substrate.
HREC were seeded at 10 cells/cm in 24 well plates and allowed to adhere overnight. Cells were washed in Hank's balanced salt solution and the medium was replaced with serum—and growth supplement-free medium (SFM) for 24 hr to induce cell-cycle arrest. Cells were washed again and pre-treated with 1 U/mL adenosine deaminase (ADA) for 30 min. […] Controls were HREC exposed to SFM or normal growth medium. For the next three days at 24-hour intervals replicate wells were treated with trypsin and the cells were collected and counted using a Coulter Counter. Each condition was examined in triplicate in three separate experiments using cells from different donors for each experiment.

[2] = system: human retinal endothelial cells (HREC); assay: Endothelial cell chemotaxis / chemokinesis in blind-well (Boyden) chambers; settings: for Effect on NECA-stimulated HREC migration (chemotaxis): antagonist 10 μmol/L co-added with NECA 10 μmol/L
Procedure: as §1
Endothelial cell chemotaxis was measured in blind-well chemotaxis chambers (Neuroprobe, Inc, Bethesda, Md.) as previously described. Briefly a single cell suspension of endothelial cells ([…] cells/well) was prepared and treated with ADA (1 U/mL). Thirty microliters of this suspension was placed in each of 48 lower wells of the blind-well apparatus. The wells were overlaid with a porous (5 μm diameter pore) polyvinyl—and pyrrolidone-free polycarbonate membrane (Nucleopore, Pleasanton, Calif.), coated with 0.1% dermal collagen. The cells were allowed to attach to the membrane by inverting the chamber of 2 h. The chambers were then placed upright and exposed to NECA alone (10 μmol/L), NECA combined with 3-N-propylxanthine (10 μmol/L), JW-V1-08 (10 μmol/L) or the non-selective AdoR antagonist xanthine amine congener (XAC, 10 μmol/L) in a 50 μL volume. After incubation for 12 h, the membrane was recovered and scraped free of cells on the attachment side. The remaining cells, those that had migrated through the pores, were fixed in methanol, is stained with modified Wright's stain and then counter-stained with haematoxylin and eosin. The positive control was 10% fetal bovine serum and the negative control was 1% ablumin. Chemokinesis, the non-oriented increase in cell migration in response to a stimulus, was measured by adding equal concentration of NECA or NECA plus one of the antagonists to both lower and upper chambers. Treatment conditions were examined in triplicate in three separate experiments.

[3] = system: human retinal endothelial cells (HREC); assay: Matrigel assay of endothelial tube formation; settings: 48 h; for Effect on NECA-induced tube formation on Matrigel (photomicrographs): antagonist 10 μmol/L with NECA 10 μmol/L, FIG. 2C, 2D; for Total tube length in the presence of NECA: antagonist added to NECA, NECA alone 74.2±2.4
Procedure: as §1
Endothelial tube formation was assessed on Matrigel. Briefly, Matrigel was thawed and kept at 4° C. Multi-well plates and pipette tips were chilled to −20° C. and Matrigel (125 μL) was added to each well of a 48-well plate and allowed to harden for a minimum of 1 h at 37° C. HREC were dissociated enzymatically (2 min at 37° C. in 0.25% Trypsin-EDTA), centrifuged (300×g, 5 min) and re-suspended in serum-free media. Test agents (100 μL) were prepared at 2× final concentration and 100 μL were added to wells. HREC (3×10 in 100 μL per well) were then added and plates were incubated at 37° C. Wells were photographed 48 h after plating. Identical fields in each well were photographed to minimize the possible variation due to variable cell density caused by the settling of cells. […] All conditions were tested in duplicate wells in three separate experiments using cells from different donors.

CCCn1c(=O)[nH]c(=O)c2[nH]cnc21 [3-N-propylxanthine]
Effect on NECA-induced HREC proliferation [1]: completely blocked; also recorded: completely block the proliferative effect of NECA
Effect on NECA-stimulated HREC migration (chemotaxis) ([2]; 12 h, FIG. 1B): antagonized the stimulatory effect of NECA on chemotaxis
Effect on NECA-induced tube formation on Matrigel (photomicrographs) [3]: diminished NECA-induced tube formation; also recorded: inhibited tube formation, resulting in fewer tubes of shorter length
Total tube length in the presence of NECA ([3]; p<0.01): 53.7±0.9 pixel

CC(C)Cn1c(=O)[nH]c(=O)c2[nH]c(N3CCCC3)nc21 [JW-V1-08, 3-isobutyl-8-pyrrolidinoxanthine]
Effect on NECA-induced HREC proliferation [1]: completely blocked; also recorded: completely block the proliferative effect of NECA
Effect on NECA-stimulated HREC migration (chemotaxis) ([2]; 12 h, FIG. 1B): antagonized the stimulatory effect of NECA on chemotaxis
Effect on NECA-induced tube formation on Matrigel (photomicrographs) [3]: diminished NECA-induced tube formation; also recorded: inhibited
Total tube length in the presence of NECA ([3]; p<0.01): 66±1.2 pixel

CCNC(=O)[C@H]1O[C@@H](n2cnc3c(N)ncnc32)[C@H](O)[C@@H]1O [NECA, 5′-N-ethylcarboxamido-adenosine]
HREC proliferation by cell counts, as density relative to cells exposed to normal growth medium ([1]; NECA 10 μmol/L, 3 days, ADA-pretreated serum-starved HREC): about 80%
HREC chemotaxis / migration ([2]; NECA alone versus unstimulated cells, 12 h, FIG. 1B): concentration-dependent increase in HREC migration; also recorded: increased migration in a concentration-dependent manner
Chemokinesis (non-oriented increase in cell migration) ([2]; equal concentration in lower and upper chambers): Neither NECA alone nor NECA in combination with the AdoR antagonists induced chemokinesis
Endothelial cell tube formation on Matrigel (photomicrographs) ([3]; NECA 10 μmol/L alone, FIG. 2B): supported extensive tube formation
Increase of tube length over untreated cells ([3]; NECA alone): more than 2 fold
Total tube length ([3]; NECA alone, untreated cells 35.7±1.6, p<0.01): 74.2±2.4 pixel

CCCn1c(=O)c2[nH]c(-c3ccc(OCC(=O)NCCN)cc3)nc2n(CCC)c1=O [XAC, xanthine amine congener]
Effect on NECA-stimulated HREC migration (chemotaxis) ([2]; 12 h, FIG. 1B): abolished NECA-stimulated migration of HREC
